≈ marks a conversion by molar mass, not a printed value.
Legend:
Format in all cases: functional
[1] = tested on: Pseudomonas aeruginosa; assay: Antimicrobial activity against Pseudomonas aeruginosa MTCC 1688 assessed as diameter of growth inhibition zone at 100 ug/ml after 18-24 hr by agar cup diffusion method; details: read-out: DIZ
[2] = tested on: Staphylococcus aureus; assay: Antimicrobial activity against Staphylococcus aureus MTCC 96 assessed as diameter of growth inhibition zone at 50 ug/ml after 18-24 hr by agar cup diffusion method; details: read-out: DIZ
[3] = tested on: Streptococcus pyogenes; assay: Antimicrobial activity against Streptococcus pyogenes MTCC 442 assessed as diameter of growth inhibition zone at 250 ug/ml after 18-24 hr by agar cup diffusion method; details: read-out: DIZ
[4] = tested on: Trichophyton rubrum; assay: Antimicrobial activity against Trichophyton rubrum MTCC 296 assessed as diameter of growth inhibition zone at 250 ug/ml after 48-96 hr by agar cup diffusion method; details: read-out: DIZ
[5] = tested on: Klebsiella pneumoniae; assay: Antimicrobial activity against Klebsiella pneumoniae MTCC 109 assessed as diameter of growth inhibition zone at 25 ug/ml after 18-24 hr by agar cup diffusion method; details: read-out: DIZ
[6] = tested on: Pseudomonas aeruginosa; assay: Antimicrobial activity against Pseudomonas aeruginosa MTCC 1688 by agar cup diffusion method
[7] = tested on: Candida albicans; assay: Antimicrobial activity against Candida albicans MTCC 227 assessed as diameter of growth inhibition zone at 250 ug/ml after 48-96 hr by agar cup diffusion method; details: read-out: DIZ
[8] = tested on: Klebsiella pneumoniae; assay: Antimicrobial activity against Klebsiella pneumoniae MTCC 109 assessed as diameter of growth inhibition zone at 50 ug/ml after 18-24 hr by agar cup diffusion method; details: read-out: DIZ
[9] = tested on: Staphylococcus aureus; assay: Antimicrobial activity against Staphylococcus aureus MTCC 96 assessed as diameter of growth inhibition zone at 100 ug/ml after 18-24 hr by agar cup diffusion method; details: read-out: DIZ
[10] = tested on: Trichophyton rubrum; assay: Antimicrobial activity against Trichophyton rubrum MTCC 296 assessed as diameter of growth inhibition zone at 25 ug/ml after 48-96 hr by agar cup diffusion method; details: read-out: DIZ
[11] = tested on: Candida albicans; assay: Antimicrobial activity against Candida albicans MTCC 227 assessed as diameter of growth inhibition zone at 50 ug/ml after 48-96 hr by agar cup diffusion method; details: read-out: DIZ
[12] = tested on: Aspergillus clavatus; assay: Antimicrobial activity against Aspergillus clavatus MTCC 1323 assessed as diameter of growth inhibition zone at 50 ug/ml after 48-96 hr by agar cup diffusion method; details: read-out: DIZ
[13] = tested on: Penicillium; assay: Antimicrobial activity against Penicillium wild strain assessed as diameter of growth inhibition zone at 50 ug/ml after 48-96 hr by agar cup diffusion method; details: read-out: DIZ
[14] = tested on: Klebsiella pneumoniae; assay: Antimicrobial activity against Klebsiella pneumoniae MTCC 109 assessed as diameter of growth inhibition zone at 100 ug/ml after 18-24 hr by agar cup diffusion method; details: read-out: DIZ
[15] = tested on: Aspergillus clavatus; assay: Antimicrobial activity against Aspergillus clavatus MTCC 1323 assessed as diameter of growth inhibition zone at 25 ug/ml after 48-96 hr by agar cup diffusion method; details: read-out: DIZ
[16] = tested on: Escherichia coli; assay: Antimicrobial activity against Escherichia coli MTCC 443 assessed as diameter of growth inhibition zone at 25 ug/ml after 18-24 hr by agar cup diffusion method; details: read-out: DIZ
[17] = tested on: Staphylococcus aureus; assay: Antimicrobial activity against Staphylococcus aureus MTCC 96 assessed as diameter of growth inhibition zone at 25 ug/ml after 18-24 hr by agar cup diffusion method; details: read-out: DIZ
[18] = tested on: Penicillium; assay: Antimicrobial activity against Penicillium wild strain assessed as diameter of growth inhibition zone at 100 ug/ml after 48-96 hr by agar cup diffusion method; details: read-out: DIZ
[19] = tested on: Trichophyton rubrum; assay: Antimicrobial activity against Trichophyton rubrum MTCC 296 assessed as diameter of growth inhibition zone at 50 ug/ml after 48-96 hr by agar cup diffusion method; details: read-out: DIZ
[20] = tested on: Staphylococcus aureus; assay: Antimicrobial activity against Staphylococcus aureus MTCC 96 by agar cup diffusion method
[21] = tested on: Klebsiella pneumoniae; assay: Antimicrobial activity against Klebsiella pneumoniae MTCC 109 assessed as diameter of growth inhibition zone at 250 ug/ml after 18-24 hr by agar cup diffusion method; details: read-out: DIZ
[22] = tested on: Aspergillus clavatus; assay: Antimicrobial activity against Aspergillus clavatus MTCC 1323 by agar cup diffusion method
[23] = tested on: Pseudomonas aeruginosa; assay: Antimicrobial activity against Pseudomonas aeruginosa MTCC 1688 assessed as diameter of growth inhibition zone at 25 ug/ml after 18-24 hr by agar cup diffusion method; details: read-out: DIZ
[24] = tested on: Streptococcus pyogenes; assay: Antimicrobial activity against Streptococcus pyogenes MTCC 442 assessed as diameter of growth inhibition zone at 100 ug/ml after 18-24 hr by agar cup diffusion method; details: read-out: DIZ
[25] = tested on: Streptococcus pyogenes; assay: Antimicrobial activity against Streptococcus pyogenes MTCC 442 assessed as diameter of growth inhibition zone at 50 ug/ml after 18-24 hr by agar cup diffusion method; details: read-out: DIZ
[26] = tested on: Penicillium; assay: Antimicrobial activity against Penicillium wild strain by agar cup diffusion method
[27] = tested on: Pseudomonas aeruginosa; assay: Antimicrobial activity against Pseudomonas aeruginosa MTCC 1688 assessed as diameter of growth inhibition zone at 250 ug/ml after 18-24 hr by agar cup diffusion method; details: read-out: DIZ
[28] = tested on: Escherichia coli; assay: Antimicrobial activity against Escherichia coli MTCC 443 assessed as diameter of growth inhibition zone at 250 ug/ml after 18-24 hr by agar cup diffusion method; details: read-out: DIZ
[29] = tested on: Pseudomonas aeruginosa; assay: Antimicrobial activity against Pseudomonas aeruginosa MTCC 1688 assessed as diameter of growth inhibition zone at 50 ug/ml after 18-24 hr by agar cup diffusion method; details: read-out: DIZ
[30] = tested on: Escherichia coli; assay: Antimicrobial activity against Escherichia coli MTCC 443 assessed as diameter of growth inhibition zone at 50 ug/ml after 18-24 hr by agar cup diffusion method; details: read-out: DIZ
[31] = tested on: Escherichia coli; assay: Antimicrobial activity against Escherichia coli MTCC 443 by agar cup diffusion method
[32] = tested on: Candida albicans; assay: Antimicrobial activity against Candida albicans MTCC 227 assessed as diameter of growth inhibition zone at 100 ug/ml after 48-96 hr by agar cup diffusion method; details: read-out: DIZ
[33] = tested on: Klebsiella pneumoniae; assay: Antimicrobial activity against Klebsiella pneumoniae MTCC 109 by agar cup diffusion method
[34] = tested on: Escherichia coli; assay: Antimicrobial activity against Escherichia coli MTCC 443 assessed as diameter of growth inhibition zone at 100 ug/ml after 18-24 hr by agar cup diffusion method; details: read-out: DIZ
[35] = tested on: Penicillium; assay: Antimicrobial activity against Penicillium wild strain assessed as diameter of growth inhibition zone at 25 ug/ml after 48-96 hr by agar cup diffusion method; details: read-out: DIZ
[36] = tested on: Candida albicans; assay: Antimicrobial activity against Candida albicans MTCC 227 by agar cup diffusion method
[37] = tested on: Trichophyton rubrum; assay: Antimicrobial activity against Trichophyton rubrum MTCC 296 assessed as diameter of growth inhibition zone at 100 ug/ml after 48-96 hr by agar cup diffusion method; details: read-out: DIZ
[38] = tested on: Trichophyton rubrum; assay: Antimicrobial activity against Trichophyton rubrum MTCC 296 by agar cup diffusion method
[39] = tested on: Staphylococcus aureus; assay: Antimicrobial activity against Staphylococcus aureus MTCC 96 assessed as diameter of growth inhibition zone at 250 ug/ml after 18-24 hr by agar cup diffusion method; details: read-out: DIZ
[40] = tested on: Aspergillus clavatus; assay: Antimicrobial activity against Aspergillus clavatus MTCC 1323 assessed as diameter of growth inhibition zone at 100 ug/ml after 48-96 hr by agar cup diffusion method; details: read-out: DIZ
[41] = tested on: Aspergillus clavatus; assay: Antimicrobial activity against Aspergillus clavatus MTCC 1323 assessed as diameter of growth inhibition zone at 250 ug/ml after 48-96 hr by agar cup diffusion method; details: read-out: DIZ
[42] = tested on: Candida albicans; assay: Antimicrobial activity against Candida albicans MTCC 227 assessed as diameter of growth inhibition zone at 25 ug/ml after 48-96 hr by agar cup diffusion method; details: read-out: DIZ
[43] = tested on: Streptococcus pyogenes; assay: Antimicrobial activity against Streptococcus pyogenes MTCC 442 assessed as diameter of growth inhibition zone at 25 ug/ml after 18-24 hr by agar cup diffusion method; details: read-out: DIZ
[44] = tested on: Streptococcus pyogenes; assay: Antimicrobial activity against Streptococcus pyogenes MTCC 442 by agar cup diffusion method
[45] = tested on: Penicillium; assay: Antimicrobial activity against Penicillium wild strain assessed as diameter of growth inhibition zone at 250 ug/ml after 48-96 hr by agar cup diffusion method; details: read-out: DIZ

Structure (SMILES): O=C(/C=C/c1ccc(O)cc1)C1C(=O)NC(=S)NC1=O
- zone of inhibition at 100 µg/mL [1]: 16 mm
- zone of inhibition at 50 µg/mL [2]: 14 mm
- zone of inhibition at 250 µg/mL [3]: 17 mm
- zone of inhibition at 250 µg/mL [4]: 24 mm
- zone of inhibition at 25 µg/mL [5]: 10 mm
- MBC [6]: 500 µg/mL (≈ 1720 µM)
- MIC [6]: 250 µg/mL (≈ 861 µM)
- zone of inhibition at 250 µg/mL [7]: 23 mm
- zone of inhibition at 50 µg/mL [8]: 11 mm
- zone of inhibition at 100 µg/mL [9]: 16 mm
- zone of inhibition at 25 µg/mL [10]: 22 mm
- zone of inhibition at 50 µg/mL [11]: 20 mm
- zone of inhibition at 50 µg/mL [12]: 21 mm
- zone of inhibition at 50 µg/mL [13]: 19 mm
- zone of inhibition at 100 µg/mL [14]: 16 mm
- zone of inhibition at 25 µg/mL [15]: 21 mm
- zone of inhibition at 25 µg/mL [16]: 15 mm
- zone of inhibition at 25 µg/mL [17]: 10 mm
- zone of inhibition at 100 µg/mL [18]: 22 mm
- zone of inhibition at 50 µg/mL [19]: 22 mm
- MBC [20]: 500 µg/mL (≈ 1720 µM)
- MIC [20]: 250 µg/mL (≈ 861 µM)
- zone of inhibition at 250 µg/mL [21]: 18 mm
- MFC [22]: 500 µg/mL (≈ 1720 µM)
- MIC [22]: 500 µg/mL (≈ 1720 µM)
- zone of inhibition at 25 µg/mL [23]: 10 mm
- zone of inhibition at 100 µg/mL [24]: 16 mm
- zone of inhibition at 50 µg/mL [25]: 17 mm
- MFC [26]: > 1000 µg/mL
- MIC [26]: > 1000 µg/mL
- zone of inhibition at 250 µg/mL [27]: 18 mm
- zone of inhibition at 250 µg/mL [28]: 17 mm
- zone of inhibition at 50 µg/mL [29]: 14 mm
- zone of inhibition at 50 µg/mL [30]: 17 mm
- MBC [31]: 250 µg/mL (≈ 861 µM)
- MIC [31]: 250 µg/mL (≈ 861 µM)
- zone of inhibition at 100 µg/mL [32]: 23 mm
- MBC [33]: 200 µg/mL (≈ 689 µM)
- MIC [33]: 125 µg/mL (≈ 431 µM)
- zone of inhibition at 100 µg/mL [34]: 16 mm
- zone of inhibition at 25 µg/mL [35]: 18 mm
- MFC [36]: 500 µg/mL (≈ 1720 µM)
- MIC [36]: > 1000 µg/mL
- zone of inhibition at 100 µg/mL [37]: 24 mm
- MFC [38]: > 1000 µg/mL
- MIC [38]: > 1000 µg/mL
- zone of inhibition at 250 µg/mL [39]: 18 mm
- zone of inhibition at 100 µg/mL [40]: 22 mm
- zone of inhibition at 250 µg/mL [41]: 24 mm
- zone of inhibition at 25 µg/mL [42]: 16 mm
- zone of inhibition at 25 µg/mL [43]: 15 mm
- MBC [44]: 250 µg/mL (≈ 861 µM)
- MIC [44]: 100 µg/mL (≈ 344 µM)
- zone of inhibition at 250 µg/mL [45]: 24 mm

— ChEMBL document CHEMBL3044736, “Synthesis, characterization, solvatochromic properties, and antimicrobial evaluation of 5-acetyl-2-thioxo-dihydro-pyrimidine-4,6-dione-based chalcones” (2013)
